From patent US20090186949A1, “Method for Treating Endothelial and Epithelial Cell Disorders by Administering High Molecular Weight PEG-Like Compounds” (THE UNIVERSITY OF CHICAGO, priority 2006, published 2009)

Columns and labels:
[1] = test system: PA-I lectin/adhesin expression in P. aeruginosa; assay type: cell-based, Pseudomonas aeruginosa
[2] = test system: P. aeruginosa PAO1 and 27853; assay type: cell-based, Pseudomonas aeruginosa
[3] = test system: human pulmonary artery endothelial cells (HPAEC); assay: Reversal of thrombin- or LPS-induced barrier disruption (TEER); assay type: cell-based; conditions: LPS

C=CCN1C[C@H](C)N([C@H](c2ccc(C(=O)N(CC)CC)cc2)c2cccc(O)c2)C[C@H]1C [BW373U86]
PA-I protein (immunoblot) [1]: induced PA-I protein to the same degree as C4-HSL
biofilm production [2]: especially increased with the δ agonist

lipopolysaccharide [LPS]
duration of decrease in barrier resistance [3]: over 20 hours
